Data taken from paper PMC11790914, “Chemogenomics for steroid hormone receptors (NR3)” (Communications Chemistry, 2025).
Several values for one entry are separate records, joined by “and”; a condition that tells them apart may be missing. Equal values may be shown once. Read-outs that look alike come from different tables or passages of the source.

Key:
[1] = system: HEK293T cells; assay: Cytotoxicity: necrosis induction (red fluorescent dye for permeable plasma membranes); type: cell-based; details: 24 h, necrotic cell count normalized to 0.1% DMSO, single replicates;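 further: compounds applied in DMEM high glucose with 0.1% FCS and 0.1% DMSO, necrotic HEK293T cells counted by red staining of cells whose plasma membranes had become permeable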
[2] = system: Gal4-VP16; type: cell-based; details: vs. DMSO ctrl, single replicates n=1-3
[3] = target: T1, ABL1 (Homo sapiens, UniProt P00519); assay: Liability panel screening by DSF: ABL1; type: binding; details: DSF, 20 µM, n=2; read-out: Mean ΔTM ABL1
T1 construct: made in house
Method in brief: (§1)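 ∆Tm in K was taken from Boltzmann-fitted unfolding inflection points, run in duplicate with a temperature ramp of 3 °C per minute up to 85 °C. Each recombinant protein (2 µM) was in HEPES 10 mM pH 7.5 and NaCl 500 mM, with SYPRO Orange dye at 1:1000.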

[4] = target: T2, AURKA (Homo sapiens, UniProt O14965); assay: Liability panel screening by DSF: AURKA; type: binding; details: DSF, 20 µM, n=2; read-out: Mean ΔTM AURKA
T2 construct: made in house
T2 sequence (O14965 1-403): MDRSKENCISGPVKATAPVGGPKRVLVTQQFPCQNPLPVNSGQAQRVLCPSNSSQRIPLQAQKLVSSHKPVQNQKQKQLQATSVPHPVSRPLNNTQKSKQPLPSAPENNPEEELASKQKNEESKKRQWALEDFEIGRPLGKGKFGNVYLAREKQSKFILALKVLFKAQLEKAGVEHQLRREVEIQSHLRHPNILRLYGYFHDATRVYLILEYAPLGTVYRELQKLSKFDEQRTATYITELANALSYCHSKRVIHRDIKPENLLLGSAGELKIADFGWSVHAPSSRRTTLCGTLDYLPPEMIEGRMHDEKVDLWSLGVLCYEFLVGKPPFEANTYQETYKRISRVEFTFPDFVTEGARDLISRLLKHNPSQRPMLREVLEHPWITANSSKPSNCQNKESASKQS
Method in brief: as §1

[5] = target: T3, CDK2 (Homo sapiens, UniProt P24941); assay: Liability panel screening by DSF: CDK2; type: binding; details: DSF, 20 µM, n=2; read-out: Mean ΔTM CDK2
T3 construct: made in house
Method in brief: as §1

[6] = target: T4, FGFR3 (Homo sapiens, UniProt P22607); assay: Liability panel screening by DSF: FGFR3; type: binding; details: DSF, 20 µM, n=2; read-out: Mean ΔTM FGFR3
T4 construct: made in house
Method in brief: as §1

[7] = target: T5, GSK3B (Homo sapiens, UniProt P49841); assay: Liability panel screening by DSF: GSK3B; type: binding; details: DSF, 20 µM, n=2; read-out: Mean ΔTM GSK3B
T5 construct: made in house

[8] = target: T6, BRD4 (Homo sapiens, UniProt O60885); assay: Liability panel screening by DSF: BRD4; type: binding; details: DSF, 20 µM, n=2; read-out: Mean ΔTM BRD4
T6 construct: This panel comprised ten highly ligandable kinases and bromodomains; made in house
Method in brief: as §1

[9] = target: T7, BRPF1 (Homo sapiens, UniProt P55201); assay: Liability panel screening by DSF: BRPF1; type: binding; details: DSF, 20 µM, n=2; read-out: Mean ΔTM BRPF1
T7 construct: This panel comprised ten highly ligandable kinases and bromodomains; made in house
T7 sequence (P55201 628-732 limits assumed): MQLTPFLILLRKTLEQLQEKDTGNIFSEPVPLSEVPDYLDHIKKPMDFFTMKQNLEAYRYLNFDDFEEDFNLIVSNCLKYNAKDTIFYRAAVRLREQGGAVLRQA
Method in brief: as §1

[10] = target: T8, CSNK1D (Homo sapiens, UniProt P48730); assay: Liability panel screening by DSF: CSNK1D; type: binding; details: DSF, 20 µM, n=2; read-out: Mean ΔTM CSNK1D
T8 construct: made in house
Method in brief: as §1

[11] = target: T9, MAPK1 (Homo sapiens, UniProt P28482); assay: Liability panel screening by DSF: MAPK1; type: binding; details: DSF, 20 µM, n=2; read-out: Mean ΔTM MAPK1
T9 construct: made in house
Method in brief: as §1

[12] = target: T10, TRIM24 (Homo sapiens, UniProt O15164); assay: Liability panel screening by DSF: TRIM24; type: binding; details: DSF, 20 µM, n=2; read-out: Mean ΔTM TRIM24
T10 construct: This panel comprised ten highly ligandable kinases and bromodomains; made in house
T10 sequence (O15164 899-1004 limits assumed): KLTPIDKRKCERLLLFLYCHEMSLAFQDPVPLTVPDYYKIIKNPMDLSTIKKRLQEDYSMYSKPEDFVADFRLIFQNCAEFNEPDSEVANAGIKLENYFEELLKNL
Method in brief: as §1

[13] = system: NF-κB activity in HEK293 NF-κB reporter cells; assay: NF-kB activity assay (GFP reporter, ionomycin/PMA); type: cell-based; details: n=3
Method in brief: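 HEK293 NF-κB GFP reporter cells given compound in 0.1% DMSO for 4 h, then stimulated with ionomycin 100 ng/mL plus PMA 10 ng/mL. Imaged every 90 min over 24 h; GFP-positive cell count normalized to confluence, three independent biological replicates.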

[14] = system: HEK293T cells; assay: Cytotoxicity: metabolic activity (WST-8 / CCK-8 assay); details: HEK293T, 24 h, WST-8, normalized to 0.1% DMSO, single replicates
[15] = system: HEK293T cells; assay: Cytotoxicity: apoptosis induction (caspase-3/7 DEVD fluorogenic DNA dye); details: HEK293T, 24 h, apoptotic cell count normalized to 0.1% DMSO, single replicates
Experimental: Cells were incubated with the test compounds at the indicated concentrations solubilized with 0.1% DMSO for 24 h. Growth-rate was determined based on the change in confluence over 24 h normalized to the change in confluence of cells treated with the 0.1% DMSO control (n = 10). Metabolic activity was determined with a water-soluble tetrazolium-8 (WST-8) assay (n = 8) after 24 h treatment. Apoptotic cells were detected with a fluorogenic DNA dye coupled to the caspase-3/7 recognition sequence (DEVD) after 24 h treatment and the apoptotic cell count was normalized to 0.1% DMSO treated cells (n = 6).
HEK293T cells (German Collection of Microorganisms and Cell Culture GmbH, DSMZ; #ACC305) were cultured in DMEM high glucose, supplemented with 10% fetal calf serum (FCS), sodium pyruvate (1 mM), penicillin (100 µ/mL) and streptomycin (100 µg/mL) at 37 °C and 5% (v/v) CO2, and seeded in pre-coated (10 µg/mL collagen G solution (Merck KgaA; #L7213) for 30 min at 37 °C) 96-well plates (2 × 10^5 cells per well). After 24 h, the cells were treated with the respective NR3 CG compound candidate at the recommended concentration, bexarotene (100 µM) or doxorubicin (30 µM) as positive controls in DMEM high glucose supplemented with 0.1% FCS, penicillin (100 µ/mL), streptomycin (100 µg/mL) and 0.1% DMSO, or 0.1% DMSO alone as an untreated control. Each sample was prepared in at least four biologically independent replicates. […] Thereafter, the medium was aspirated and the cells were incubated for 3 h with 90 µL DMEM high glucose supplemented with 0.2% FCS, penicillin (100 µ/mL) and streptomycin (100 µg/mL) and additionally containing 10 µL Cell Counting Kit 8 solution (CCK-8; MedChemExpress, Monmouth Junction, New York, USA; #HY-K0301), and absorbance was measured at 1 h, 2 h and 3 h of incubation at 450 nm on a Tecan Spark Cyto to assess metabolic activity of the cells. Before drug administration, after the first medium exchange, 24 h after drug administration, and after fluorescence imaging cell confluence was assessed using the Tecan Spark Cyto, to account for changes in cell confluence due to drug administration and cell handling. Compound effects on cell confluence, apoptosis, metabolic activity and necrosis were normalized to the vehicle control of each biological replicate individually.

T5 sequence (P49841 whole entry, species assumed): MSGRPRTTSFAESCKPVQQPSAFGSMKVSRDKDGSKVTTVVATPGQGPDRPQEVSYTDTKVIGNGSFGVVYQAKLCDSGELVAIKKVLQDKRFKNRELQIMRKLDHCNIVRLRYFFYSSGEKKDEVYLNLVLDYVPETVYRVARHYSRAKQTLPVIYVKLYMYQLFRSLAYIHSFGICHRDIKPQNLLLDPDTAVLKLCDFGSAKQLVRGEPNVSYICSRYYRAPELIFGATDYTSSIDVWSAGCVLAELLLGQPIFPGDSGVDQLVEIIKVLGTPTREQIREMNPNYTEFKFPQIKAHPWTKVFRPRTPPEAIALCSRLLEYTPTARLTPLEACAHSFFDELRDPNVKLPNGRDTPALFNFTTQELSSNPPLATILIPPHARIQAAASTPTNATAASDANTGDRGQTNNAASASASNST
T4 sequence (P22607 23-806, species assumed): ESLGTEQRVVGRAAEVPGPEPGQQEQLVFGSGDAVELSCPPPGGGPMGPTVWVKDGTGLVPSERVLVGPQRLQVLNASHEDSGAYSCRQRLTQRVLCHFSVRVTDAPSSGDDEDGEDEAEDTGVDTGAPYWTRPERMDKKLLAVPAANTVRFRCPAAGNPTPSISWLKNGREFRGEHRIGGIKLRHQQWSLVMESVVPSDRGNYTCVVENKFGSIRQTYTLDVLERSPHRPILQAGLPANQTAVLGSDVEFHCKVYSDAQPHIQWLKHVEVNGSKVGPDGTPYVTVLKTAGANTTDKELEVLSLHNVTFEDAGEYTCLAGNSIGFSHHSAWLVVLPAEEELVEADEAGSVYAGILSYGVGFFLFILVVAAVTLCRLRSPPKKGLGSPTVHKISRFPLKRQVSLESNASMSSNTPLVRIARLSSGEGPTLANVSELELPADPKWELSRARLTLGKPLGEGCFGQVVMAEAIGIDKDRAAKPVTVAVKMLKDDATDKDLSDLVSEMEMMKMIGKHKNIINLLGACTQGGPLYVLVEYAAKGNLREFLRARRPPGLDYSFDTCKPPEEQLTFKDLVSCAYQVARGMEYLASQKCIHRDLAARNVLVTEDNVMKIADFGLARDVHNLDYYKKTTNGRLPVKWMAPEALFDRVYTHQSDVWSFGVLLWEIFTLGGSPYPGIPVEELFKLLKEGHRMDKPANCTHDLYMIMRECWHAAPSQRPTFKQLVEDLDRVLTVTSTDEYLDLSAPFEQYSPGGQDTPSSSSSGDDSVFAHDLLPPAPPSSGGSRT
T9 sequence (P28482 whole entry, species assumed): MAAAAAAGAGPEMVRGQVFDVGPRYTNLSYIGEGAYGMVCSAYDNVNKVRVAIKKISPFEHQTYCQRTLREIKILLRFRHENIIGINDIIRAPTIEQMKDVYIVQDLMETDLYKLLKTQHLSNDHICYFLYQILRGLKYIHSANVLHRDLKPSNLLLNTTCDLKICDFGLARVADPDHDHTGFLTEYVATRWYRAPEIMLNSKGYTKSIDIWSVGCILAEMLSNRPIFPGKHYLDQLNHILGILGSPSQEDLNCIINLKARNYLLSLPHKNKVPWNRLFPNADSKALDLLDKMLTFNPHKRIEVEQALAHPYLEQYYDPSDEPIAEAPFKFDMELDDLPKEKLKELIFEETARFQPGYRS
T8 sequence (P48730 whole entry, species assumed): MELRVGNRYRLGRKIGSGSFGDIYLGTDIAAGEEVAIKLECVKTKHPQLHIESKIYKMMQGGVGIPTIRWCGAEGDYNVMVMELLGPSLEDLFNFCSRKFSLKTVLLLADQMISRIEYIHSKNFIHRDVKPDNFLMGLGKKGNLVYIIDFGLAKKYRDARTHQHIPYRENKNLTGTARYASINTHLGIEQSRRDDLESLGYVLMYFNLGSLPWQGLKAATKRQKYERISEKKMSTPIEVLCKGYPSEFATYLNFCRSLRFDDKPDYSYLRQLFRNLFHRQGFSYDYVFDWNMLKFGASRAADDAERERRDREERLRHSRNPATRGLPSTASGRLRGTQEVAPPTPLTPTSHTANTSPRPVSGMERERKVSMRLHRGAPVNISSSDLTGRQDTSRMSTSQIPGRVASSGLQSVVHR
T1 sequence (P00519 whole entry, species assumed): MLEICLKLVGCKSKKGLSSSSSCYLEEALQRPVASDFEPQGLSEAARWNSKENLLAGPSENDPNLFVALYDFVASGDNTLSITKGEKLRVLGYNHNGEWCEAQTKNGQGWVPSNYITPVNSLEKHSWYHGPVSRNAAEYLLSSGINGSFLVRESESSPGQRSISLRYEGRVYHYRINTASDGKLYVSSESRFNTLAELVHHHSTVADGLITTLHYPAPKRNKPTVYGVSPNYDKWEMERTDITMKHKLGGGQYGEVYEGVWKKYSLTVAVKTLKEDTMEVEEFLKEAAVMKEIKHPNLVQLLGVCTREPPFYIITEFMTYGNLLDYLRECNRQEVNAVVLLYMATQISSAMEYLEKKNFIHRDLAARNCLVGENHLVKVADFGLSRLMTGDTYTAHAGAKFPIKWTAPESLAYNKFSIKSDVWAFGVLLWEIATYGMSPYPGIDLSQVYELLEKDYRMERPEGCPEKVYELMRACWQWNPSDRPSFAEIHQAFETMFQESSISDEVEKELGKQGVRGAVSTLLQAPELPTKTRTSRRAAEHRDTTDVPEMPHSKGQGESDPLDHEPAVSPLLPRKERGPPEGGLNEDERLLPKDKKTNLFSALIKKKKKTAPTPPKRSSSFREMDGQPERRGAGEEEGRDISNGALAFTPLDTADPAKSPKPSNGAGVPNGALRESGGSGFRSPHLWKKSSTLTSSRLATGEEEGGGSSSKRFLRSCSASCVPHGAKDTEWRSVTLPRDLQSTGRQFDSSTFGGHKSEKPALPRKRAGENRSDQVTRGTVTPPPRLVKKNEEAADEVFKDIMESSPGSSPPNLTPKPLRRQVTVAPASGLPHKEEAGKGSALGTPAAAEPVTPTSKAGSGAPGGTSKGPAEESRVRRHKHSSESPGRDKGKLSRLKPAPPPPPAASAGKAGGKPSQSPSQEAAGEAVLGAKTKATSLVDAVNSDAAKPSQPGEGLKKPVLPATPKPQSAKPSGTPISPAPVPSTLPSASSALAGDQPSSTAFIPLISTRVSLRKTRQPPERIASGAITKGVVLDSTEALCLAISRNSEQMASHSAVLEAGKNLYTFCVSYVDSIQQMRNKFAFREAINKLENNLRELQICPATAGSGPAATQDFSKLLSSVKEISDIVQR

## CC/C(=C(\c1ccc(O)cc1)c1ccc(OCCN(C)C)cc1)c1ccccc1 [(Z)-4-Hydroxytamoxifen]
[1]; 0.3 µM
  Necrosis induction [NI]: 0.97 and 1.43 and 0.88 and 1.20
[1]; 3 µM
  Necrosis induction [NI]: 1.55 and 1.35 and 1.14 and 1.44
[2]; 0.3 µM
  VP16 control [fold reporter gene activity]: 1.09 fold reporter gene activity and 0.88 fold reporter gene activity and 1.33 fold reporter gene activity
[2]; 3 µM
  VP16 control [fold reporter gene activity]: 1.11 fold reporter gene activity and 1.04 fold reporter gene activity and 1.49 fold reporter gene activity
[3]
  ΔTm at 20 µM: 0.29 °C
[4]
  ΔTm at 20 µM: 0.07 °C
[5]
  ΔTm at 20 µM: -0.23 °C
[6]
  ΔTm at 20 µM: 0.53 °C
[7]
  ΔTm at 20 µM: -1.45 °C
[8]
  ΔTm at 20 µM: -3.37 °C
[9]
  ΔTm at 20 µM: -1.98 °C
[10]
  ΔTm at 20 µM: 0.12 °C
[11]
  ΔTm at 20 µM: 0.0336 °C
[12]
  ΔTm at 20 µM: -0.41 °C
[13]; 0.3 µM, 1,5 h
  Mean NFκB response: 2504.77 GFP+-cells/confluence ∙ 1000
[13]; 0.3 µM, 4,5 h
  Mean NFκB response: 3089.76 GFP+-cells/confluence ∙ 1000
[13]; 0.3 µM, 7,5 h
  Mean NFκB response: 8223.00 GFP+-cells/confluence ∙ 1000
[13]; 0.3 µM, 10,5 h
  Mean NFκB response: 20009.52 GFP+-cells/confluence ∙ 1000
[13]; 0.3 µM, 13,5 h
  Mean NFκB response: 28937.88 GFP+-cells/confluence ∙ 1000
[13]; 0.3 µM, 16,6 h
  Mean NFκB response: 35283.33 GFP+-cells/confluence ∙ 1000
[13]; 0.3 µM, 19,5 h
  Mean NFκB response: 40116.67 GFP+-cells/confluence ∙ 1000
[13]; 0.3 µM, 22,5 h
  Mean NFκB response: 43200.00 GFP+-cells/confluence ∙ 1000
[13]; 0.3 µM, 3 h
  Mean NFκB response: 2555.89 GFP+-cells/confluence ∙ 1000
[13]; 0.3 µM, 6 h
  Mean NFκB response: 4572.00 GFP+-cells/confluence ∙ 1000
[13]; 0.3 µM, 9 h
  Mean NFκB response: 14658.14 GFP+-cells/confluence ∙ 1000
[13]; 0.3 µM, 12 h
  Mean NFκB response: 24637.27 GFP+-cells/confluence ∙ 1000
[13]; 0.3 µM, 15 h
  Mean NFκB response: 32269.00 GFP+-cells/confluence ∙ 1000
[13]; 0.3 µM, 18 h
  Mean NFκB response: 37590.00 GFP+-cells/confluence ∙ 1000
[13]; 0.3 µM, 21 h
  Mean NFκB response: 41653.33 GFP+-cells/confluence ∙ 1000
[13]; 0.3 µM, 24 h
  Mean NFκB response: 44413.33 GFP+-cells/confluence ∙ 1000
[13]; 3 µM, 1,5 h
  Mean NFκB response: 2613.90 GFP+-cells/confluence ∙ 1000
[13]; 3 µM, 4,5 h
  Mean NFκB response: 3334.14 GFP+-cells/confluence ∙ 1000
[13]; 3 µM, 7,5 h
  Mean NFκB response: 7514.38 GFP+-cells/confluence ∙ 1000
[13]; 3 µM, 10,5 h
  Mean NFκB response: 19242.21 GFP+-cells/confluence ∙ 1000
[13]; 3 µM, 13,5 h
  Mean NFκB response: 28764.40 GFP+-cells/confluence ∙ 1000
[13]; 3 µM, 16,6 h
  Mean NFκB response: 35561.15 GFP+-cells/confluence ∙ 1000
[13]; 3 µM, 19,5 h
  Mean NFκB response: 40217.80 GFP+-cells/confluence ∙ 1000
[13]; 3 µM, 22,5 h
  Mean NFκB response: 43818.60 GFP+-cells/confluence ∙ 1000
[13]; 3 µM, 3 h
  Mean NFκB response: 2770.52 GFP+-cells/confluence ∙ 1000
[13]; 3 µM, 6 h
  Mean NFκB response: 4451.37 GFP+-cells/confluence ∙ 1000
[13]; 3 µM, 9 h
  Mean NFκB response: 13511.36 GFP+-cells/confluence ∙ 1000
[13]; 3 µM, 12 h
  Mean NFκB response: 24240.37 GFP+-cells/confluence ∙ 1000
[13]; 3 µM, 15 h
  Mean NFκB response: 32735.51 GFP+-cells/confluence ∙ 1000
[13]; 3 µM, 18 h
  Mean NFκB response: 38442.69 GFP+-cells/confluence ∙ 1000
[13]; 3 µM, 21 h
  Mean NFκB response: 42295.79 GFP+-cells/confluence ∙ 1000
[13]; 3 µM, 24 h
  Mean NFκB response: 44964.03 GFP+-cells/confluence ∙ 1000
[14]; 0.3 µM
  Metabolic activity [MA]: 1.00 and 1.02 and 0.89 and 0.98 and 0.96 and 0.95 and 1.06 and 0.84
[14]; 3 µM
  Metabolic activity [MA]: 0.88 and 0.94 and 0.92 and 0.98 and 0.96 and 0.89 and 1.00 and 0.84
[15]; 0.3 µM
  Apoptosis induction [AI]: 0.84 and 1.40 and 1.81 and 1.38 and 0.62 and 0.65
[15]; 3 µM
  Apoptosis induction [AI]: 1.07 and 1.34 and 1.98 and 1.60 and 1.04 and 1.22
